Measurements taken from ChEMBL document CHEMBL6182856, “Novel one-/two-photon excited carbazole/quinolinium photosensitizers manifest nanomolar and hypoxia-resistant tumor photodynamic therapy by accelerating apoptosis, ferroptosis, and autophagy” (Eur J Med Chem, 2025).
pIC50: −log10 of the molar value. Calls of active or inactive are those of the source. The calls are words filed in the database; no cut-off is given here.

Assays:
[1] = system: HT-29; assay: Cytotoxicity against human HT-29 cells assessed as inhibition of cell growth incubated for 24 hrs measured under normoxia conditions by MTT assay; format: functional, cell-based; settings: HT-29, 24 h
[2] = Phototoxicity against mouse 4T1 cells assessed as inhibition of cell growth incubated for 24 hrs measured under normoxia conditions and after one-photon excitation upon irradiation with light at 520 nm, 200 mW/cm2 for 10 mins by MTT assay; format: functional, cell-based; settings: 4T1, light or radiation study
[3] = Photosensitizing ability of the compound assessed as superoxide radical production measured upon irradiation by DHE probe based assay; format: functional
[4] = Photosensitizing ability of the compound assessed as hydroxyl radical production measured upon irradiation by HPF probe based assay; format: functional
[5] = system: 4T1; assay: Cytotoxicity against mouse 4T1 cells assessed as inhibition of cell growth incubated for 24 hrs measured under normoxia conditions by MTT assay; format: functional, cell-based; settings: 4T1, 24 h
[6] = Phototherapeutic index, ratio of IC50 for cytotoxicity against human HT-29 cells measured under normoxia conditions to IC50 for phototoxicity against human HT-29 cells measured under normoxia conditions and after one-photon excitation upon irradiation with light at 520 nm, 200 mW/cm2 for 10 mins; format: functional
[7] = system: A549; assay: Cytotoxicity against human A549 cells assessed as inhibition of cell growth incubated for 24 hrs measured under normoxia conditions by MTT assay; format: functional, cell-based; settings: A549, 24 h
[8] = Phototoxicity against human A549 cells assessed as inhibition of cell growth incubated for 24 hrs measured under normoxia conditions and after one-photon excitation upon irradiation with light at 520 nm, 200 mW/cm2 for 10 mins by MTT assay; format: functional, cell-based; settings: A549, light or radiation study
[9] = Photosensitizing ability of the compound in methanol assessed as singlet oxygen production by measuring quantum yield measured upon irradiation by DPBF based assay; format: functional
[10] = Phototoxicity against human HT-29 cells assessed as inhibition of cell growth incubated for 24 hrs measured under normoxia conditions and after one-photon excitation upon irradiation with light at 520 nm, 200 mW/cm2 for 10 mins by MTT assay; format: functional, cell-based; settings: HT-29, light or radiation study
[11] = system: 4T1; assay: Phototherapeutic index, ratio of IC50 for cytotoxicity against mouse 4T1 cells measured under normoxia conditions to IC50 for phototoxicity against mouse 4T1 cells measured under normoxia conditions and after one-photon excitation upon irradiation with light at 520 nm, 200 mW/cm2 for 10 mins; format: functional
[12] = Phototherapeutic index, ratio of IC50 for cytotoxicity against human A549 cells measured under normoxia conditions to IC50 for phototoxicity against human A549 cells measured under normoxia conditions and after one-photon excitation upon irradiation with light at 520 nm, 200 mW/cm2 for 10 mins; format: functional

Compound	pIC50 [1]	pIC50 [2]	Activity [3]	Activity [4]	pIC50 [5]	Ratio IC50 [6]	pIC50 [7]	pIC50 [8]	Activity [9]	pIC50 [10]	Ratio IC50 [11]	Ratio IC50 [12]
CCn1c2ccc(/C=C/c3cc[n+](C)c4ccccc34)cc2c2cc([N+](=O)[O-])ccc21.I	4.23	5.32	Active	Active	4.70	16	< 4.00	5.39	0.13	5.45	4	
CCn1c2ccc(N)cc2c2cc(/C=C/c3cc[n+](C)c4ccccc34)ccc21.[I-]	4.71	5.44	Active	Active	4.69	7	4.65	5.65	0.04	5.56	5	10
